Test results as given in patent US20260258009A1, “3-[(BENZO[D][1,3]DIOXOLANE-4-YL)OXY]PROPYLAMINE HYDROCHLORIDE, OPTICAL ISOMER AND CRYSTAL THEREOF, AND PREPARATION METHOD THEREFOR” (priority 2022, published 2026).
Like-named read-outs stand apart in the source and are kept apart here.

How the values were obtained:
[1] = tested on: ICR mice; assay: in vivo; settings: mouse acute toxicity LD50 / forced swimming ED50
Protocol: (§1) The dose administered at the time of the formal test was determined based on the dose of the compound in the preliminary experiment that caused 100% and 0% death in mice. In the formal test, ICR mice were taken and randomly grouped, with 10 mice in each group, half male and half female, which were subjected to intragastric administration at 10 mL/kg.
(§2) From the results of the mouse acute toxicity test, the compound of formula (I) is least toxic. The therapeutic index (TI=LD50/ED50) was calculated based on the results of the mouse acute toxicity and efficacy test.

[2] = in vivo; settings: both sexes, ICR, mouse, in vivo, po
Protocol: as §1, §2

[3] = tested on: ICR mice; assay: Mouse forced swimming test; type: in vivo; settings: intragastric; for Immobility time: mice, 1 h after administration, mean±SD, n=12; for minimum effective dose (MED) / ED50: mouse forced swimming; for ED50: po, read-out: ED50 (median effective dose, FST-ED50)
Protocol: SPF grade ICR mice were taken. The animals were grouped by weight, 12 animals per group, and the animals were allowed to acclimate for at least 3 days before behavioural test.
The behavioural test was started 1 h after intragastric administration. The mice were placed in a transparent glass cylinder with water (water depth: 15 cm, water temperature: 23-25° C.) and video recorded for 6 min (the background was an LED light panel). At the end of the time, the mice were removed from the water and the next batch of mice was subjected to the behavioural test. Water was changed after every 3 batches of tests. After the test, the video of the behavioural test was derived and the cumulative immobility time of the mice 4 min after the 6 min forced swimming period was analyzed using the Forced Swim Scant 2.0 software.
The test results are expressed as mean±SD. Comparisons between each group and the vehicle group were conducted using the t-test. The differences were considered statistically significant when. P<0.05.

[4] = in vivo; settings: both, beagle, dog; for half-life: t1/2
Protocol: Each group had six beagle dogs, half male and half female.
Preparation of solutions: • 1) Intravenous injection administration: 0.9% Normal saline was used as a vehicle. • 2) Oral administration: According to the dose of 10 mg/kg (based on base), a corresponding mass of the drug was weighed according to the actual weight of the animal, and then filled into a capsule to be administered to the animal.

[5] = Solubility experiment (HPLC, external standard method); type: physicochemical; settings: 20 °C, water, thermodynamic from solid
Protocol: The concentrated solution was placed in a 20° C. water bath thermostatic oscillator for overnight oscillation (supersaturation) and filtered. The filtrate was taken, 1 mL of which was precisely measured and placed in a 100 mL volumetric flask. A diluent (water) was added, the mixture was diluted to volume and mixed well, 1 mL of which was precisely measured and placed in a 10 mL volumetric flask. A diluent was added, the mixture was diluted to volume and mixed well as a test sample solution.
Control substance solution: A proper amount of 5 samples were respectively taken, precisely measured, dissolved in a proper amount of a diluent by ultrasonication, and diluted to give a solution containing about 0.1 mg of the sample per 1 mL. Two duplicate samples were prepared for each batch.
• (1) Preparation of buffer: About 2.6428 g ammonium sulfate was weighed and dissolved in 1000 mL of water. 2 mL of triethylamine was added, and the pH value was adjusted to 4.0 with dilute sulfuric acid. • (2) Preparation of mobile phase: Methanol-0.02 mol/L ammonium sulfate solution (2 mL triethylamine was added per 1000 mL, and the pH value was adjusted to 4.0 with dilute sulfuric acid) (45:55). 1000 mL was prepared, mixed well, filtered, and used after ultrasonic treatment.
Detection wavelength: 230 nm; flow rate: 1.0 mL/min; column temperature: 35° C.; sample injection volume: 20 μL; chromatographic column: Agilent Eclipse XDB-C18 chromatographic column (4.6×150 mm, 5 μm); mobile phase: methanol-0.02 mol/L ammonium sulfate solution (2 mL triethylamine was added per 1000 mL, and the pH value was adjusted to 4.0 with dilute sulfuric acid) (45:55).
20 μL of each solution was precisely measured, and injected separately into a liquid chromatograph. The chromatograms were recorded, and the solubility of the compounds was determined according to an external standard method.

[6] = 95% confidence interval of LD50
[7] = Mouse acute toxicity LD50 (median lethal dose)

Row | SMILES | TI = LD50/ED50 (therapeutic index) [1] | LD50 at 7 days [2, 6] [mg/kg] | LD50 at 7 days [2, 7] [mg/kg] | Immobility time ([3]; 0.2 mg/kg) [s] | Immobility time ([3]; 0.4 mg/kg) [s] | Immobility time ([3]; 0.8 mg/kg) [s] | Immobility time ([3]; 1.6 mg/kg) [s] | Immobility time ([3]; 15 mg/kg) [s] | Immobility time ([3]; 30 mg/kg) [s] | minimum effective dose (MED) [3] [mg/kg] | ED50 [3] [mg/kg] | further results
1 | CNCC[C@H](Oc1cccc2c1OCO2)c1ccccc1.Cl [(S)—N-methyl-3-phenyl-3-[(benzo[d][1,3]dioxolan-4-yl)oxy]propylamine hydrochloride] | 38.4 | 13.1 to 91.3 | 66.8 | 180.4 ± 29.4 | 167.5 ± 45.7 | 147.0 ± 65.4 | 94.1 ± 35.4 | 8.9 ± 8.7 | 6.2 ± 9.7 | 1.6 | 1.74 | –
2 | CNCC[C@@H](Oc1cccc2c1OCO2)c1ccccc1.Cl [Compound of formula I, (R)—N-methyl-3-phenyl-3-[(benzo[d][1,3]dioxolan-4-yl)oxy]propylamine hydrochloride] | 120.4 | 106 to 125 | 116 | 178.6 ± 17.0 | 105.0 ± 72.1 | 106.0 ± 59.7 | 55.4 ± 41.1 | 13.0 ± 23.3 | 7.6 ± 4.4 | 0.4 | 0.96 | AUC(0-t) ([4]; iv, 0.3 mg/kg): 117 ng·h/mL; AUC(0-inf) ([4]; iv, 0.3 mg/kg): 119 ng·h/mL; Cmax ([4]; iv, 0.3 mg/kg): 80.4 ng/mL; Tmax ([4]; iv, 0.3 mg/kg): 0.08 h; half-life ([4]; iv, 0.3 mg/kg): 2.15 h; AUC(0-t) ([4]; po, 1 mg/kg): 100 ng·h/mL; AUC(0-inf) ([4]; po, 1 mg/kg): 102 ng·h/mL; Cmax ([4]; po, 1 mg/kg): 28.9 ng/mL; Tmax ([4]; po, 1 mg/kg): 1.23 h; half-life ([4]; po, 1 mg/kg): 2.36 h; bioavailability ([4]; po, Bioavailability): 25.7%; solubility ([5]; Solubility): 33.2 mg/mL
3 | CNCCC(Oc1cccc2c1OCO2)c1ccccc1.Cl (stereo not shown) [N-methyl-3-phenyl-3-[(benzo[d][1,3]dioxolan-4-yl)oxy]propylamine hydrochloride] | 62.0 | – | – | 165.3 ± 37.2 | 125.6 ± 53.6 | 86.9 ± 53.4 | 83.2 ± 52.9 | 64.3 ± 73.7 | 3.7 ± 5.9 | 0.4 | 1.81 | solubility ([5]; Water, 20° C., overnight oscillation, read-out: Solubility): 1500 mg/mL; LD50 at 7 days ([2]; mice, single intragastric administration, observed within 7 days, read-out: Mouse acute toxicity LD50 (median lethal dose)): 112 mg/kg; LD50 at 7 days ([2]; mice, single intragastric administration, read-out: 95% confidence interval of LD50): 102 to 122 mg/kg
